Structures can show the parent of a compound that is named as a salt.
How the values were obtained:
[1] = target: T1, TBK1 (Homo sapiens, UniProt Q9UHD2); assay: TBK biochemical assay; settings: 10 point 1:4 dose response, 30 uM top concentration, 90 min at 25° C., LabChip EZ Reader II; read-out: TBK1_IC50
T1 sequence (Q9UHD2 1-729): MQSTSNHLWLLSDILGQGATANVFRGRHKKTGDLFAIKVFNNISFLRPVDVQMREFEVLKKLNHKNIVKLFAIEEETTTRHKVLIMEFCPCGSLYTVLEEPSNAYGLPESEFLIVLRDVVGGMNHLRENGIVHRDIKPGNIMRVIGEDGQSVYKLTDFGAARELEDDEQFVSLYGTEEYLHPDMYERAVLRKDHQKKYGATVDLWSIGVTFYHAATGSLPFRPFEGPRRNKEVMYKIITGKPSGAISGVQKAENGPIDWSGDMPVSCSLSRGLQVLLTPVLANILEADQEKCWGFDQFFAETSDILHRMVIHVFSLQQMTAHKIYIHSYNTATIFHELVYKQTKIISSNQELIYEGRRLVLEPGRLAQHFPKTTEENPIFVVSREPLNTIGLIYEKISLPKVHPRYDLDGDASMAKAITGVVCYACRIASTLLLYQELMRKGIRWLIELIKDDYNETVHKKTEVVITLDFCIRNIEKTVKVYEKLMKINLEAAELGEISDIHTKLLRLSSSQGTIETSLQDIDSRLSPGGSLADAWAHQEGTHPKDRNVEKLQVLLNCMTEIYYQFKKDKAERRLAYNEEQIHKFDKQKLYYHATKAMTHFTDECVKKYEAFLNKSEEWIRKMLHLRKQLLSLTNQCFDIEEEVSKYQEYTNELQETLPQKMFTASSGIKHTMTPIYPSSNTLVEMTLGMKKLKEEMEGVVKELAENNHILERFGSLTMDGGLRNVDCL
Outline: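 Substrate and product were separated and quantified by microfluidic mobility-shift read (LabChip). 10 uM staurosporine served as the full-inhibition control, and the reference compound was tested from 1 uM final.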

[2] = target: T2, IKKε (Homo sapiens, UniProt Q14164); assay: IKKε biochemical assay; settings: 10 point 1:4 dose response, 30 uM top concentration, 90 min at 25° C., LabChip EZ Reader II; read-out: IKKε_IC50
T2 sequence (Q14164 1-716): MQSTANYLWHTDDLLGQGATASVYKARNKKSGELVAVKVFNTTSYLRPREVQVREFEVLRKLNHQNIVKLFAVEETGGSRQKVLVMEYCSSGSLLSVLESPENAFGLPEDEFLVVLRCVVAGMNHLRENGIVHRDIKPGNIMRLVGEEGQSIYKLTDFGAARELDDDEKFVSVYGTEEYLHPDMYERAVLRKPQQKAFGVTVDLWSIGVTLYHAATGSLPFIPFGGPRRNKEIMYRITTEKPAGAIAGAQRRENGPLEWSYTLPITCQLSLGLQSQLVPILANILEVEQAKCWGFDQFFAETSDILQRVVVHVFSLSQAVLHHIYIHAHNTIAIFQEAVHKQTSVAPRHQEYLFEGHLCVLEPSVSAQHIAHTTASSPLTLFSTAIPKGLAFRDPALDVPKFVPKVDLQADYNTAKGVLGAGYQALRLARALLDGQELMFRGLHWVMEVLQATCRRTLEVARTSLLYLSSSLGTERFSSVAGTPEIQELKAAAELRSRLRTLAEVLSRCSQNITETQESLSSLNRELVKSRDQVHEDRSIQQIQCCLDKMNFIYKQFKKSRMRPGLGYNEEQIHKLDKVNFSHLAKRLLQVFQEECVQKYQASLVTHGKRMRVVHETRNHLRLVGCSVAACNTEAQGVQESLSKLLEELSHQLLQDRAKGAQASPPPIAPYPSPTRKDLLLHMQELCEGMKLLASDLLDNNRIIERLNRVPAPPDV
Outline: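 Compounds in 1% DMSO final were incubated with IKKε enzyme and substrate at 25° C. for 90 min, then stopped. Substrate and product peaks were resolved by LabChip EZ Reader II mobility-shift read-out. Staurosporine at 10 uM final served as the full-inhibition control.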

SMILES	IC50 [1] [µM]	IC50 [2] [µM]
COc1nc(Nc2nccc(-c3ccc(OC4CCN(C(=O)CO)CC4(F)F)c(C#N)c3)n2)ccc1C1CCN(C2COC2)CC1 (stereo not drawn) [Example 154, 2-[3,3-Difluoro-1-(2-hydroxy-acetyl)-piperidin-4-yloxy]-5-[2-(2-methoxy-1′-oxetan-3-yl-1′,2′,3′,4′,5′,6′-hexahydro-[3,4′]bipyridinyl-6-ylamino)-pyrimidin-4-yl]-benzonitrile]	< 0.1	< 0.1
N#Cc1cc(-c2ccnc(Nc3ccc(C4CCN(C5COC5)C4)cc3)n2)ccc1OC1CCNCC1(F)F (stereo not drawn) [Example 155, 2-(3,3-Difluoro-piperidin-4-yloxy)-5-{2-[4-(1-oxetan-3-yl-pyrrolidin-3-yl)-phenylamino]-pyrimidin-4-yl}-benzonitrile hydrochloride]	< 0.1	< 0.1
N#Cc1cc(-c2ccnc(Nc3cccc(C4CCN(C(CO)CO)CC4)c3)n2)ccc1OC1CCNCC1(F)F (stereo not drawn) [Example 156, 2-(3,3-Difluoro-piperidin-4-yloxy)-5-(2-{3-[1-(2-hydroxy-1-hydroxymethyl-ethyl)-piperidin-4-yl]-phenylamino}-pyrimidin-4-yl)-benzonitrile]	< 0.1	< 0.1
C[C@H](O)C(=O)N1CCC(Oc2ccc(-c3ccnc(Nc4cccc(C5CCN(C(CO)CO)CC5)c4)n3)cc2C#N)C(F)(F)C1 (stereo partly drawn) [Example 157, 2-[3,3-Difluoro-1-((S)-2-hydroxy-propionyl)-piperidin-4-yloxy]-5-(2-{3-[1-(2-hydroxy-1-hydroxymethyl-ethyl)-piperidin-4-yl]-phenylamino}-pyrimidin-4-yl)-benzonitrile]	< 0.1	< 0.1
C[C@@H](O)C(=O)N1CCC(Oc2ccc(-c3ccnc(Nc4cccc(C5CCN(C(CO)CO)CC5)c4)n3)cc2C#N)C(F)(F)C1 (stereo partly drawn) [Example 158, 2-[3,3-Difluoro-1-((R)-2-hydroxy-propionyl)-piperidin-4-yloxy]-5-(2-{3-[1-(2-hydroxy-1-hydroxymethyl-ethyl)-piperidin-4-yl]-phenylamino}-pyrimidin-4-yl)-benzonitrile]	< 0.1	< 0.1
N#Cc1cc(-c2ccnc(Nc3ccc(N4CCN(C5COC5)CC4)cc3)n2)ccc1OC1COC1 [Example 159, 5-[2-([4-[4-(oxetan-3-yl)piperazin-1-yl]phenyl]amino)pyrimidin-4-yl]-2-(oxetan-3-yloxy)benzonitrile]	< 0.1	< 0.1
COc1nc(Nc2nccc(-c3ccc(OC4COC4)c(C#N)c3)n2)ccc1N1CCN(C2COC2)CC1 [Example 160, 5-[2-([6-methoxy-5-[4-(oxetan-3-yl)piperazin-1-yl]pyridin-2-yl]amino)pyrimidin-4-yl]-2-(oxetan-3-yloxy)benzonitrile]	0.1 to 1	0.1 to 1
N#Cc1cc(-c2ccnc(Nc3ccc(N4CCN(C5COC5)CC4)cc3)n2)ccc1OC1CCOC1 (stereo not drawn) [Example 161, 5-[2-([4-[4-(oxetan-3-yl)piperazin-1-yl]phenyl]amino)pyrimidin-4-yl]-2-(oxolan-3-yloxy)benzonitrile]	< 0.1	< 0.1
COc1nc(Nc2nccc(-c3ccc(OC4CCOC4)c(C#N)c3)n2)ccc1N1CCN(C2COC2)CC1 (stereo not drawn) [Example 162, 5-[2-([6-methoxy-5-[4-(oxetan-3-yl)piperazin-1-yl]pyridin-2-yl]amino)pyrimidin-4-yl]-2-(oxolan-3-yloxy)benzonitrile]	< 0.1	< 0.1
CN1CCN(c2ccc(Nc3nccc(-c4ccc(OC5CCOCC5)c(C#N)c4)n3)cc2)CC1 [Example 163, 5-{2-[4-(4-Methyl-piperazin-1-yl)-phenylamino]-pyrimidin-4-yl}-2-(tetrahydro-pyran-4-yloxy)-benzonitrile]	< 0.1	< 0.1
CN1CCN(c2ccc(Nc3nccc(-c4ccc(OC5CCOCC5)c(C#N)c4)n3)nc2)CC1 [Example 164, 5-(2-[[5-(4-methylpiperazin-1-yl)pyridin-2-yl]amino]pyrimidin-4-yl)-2-(oxan-4-yloxy)benzonitrile]	< 0.1	< 0.1
N#Cc1cc(-c2ccnc(Nc3ccc(N4CCN(C5COC5)CC4)cn3)n2)ccc1OC1CCOCC1 [Example 165, 5-{2-[5-(4-Oxetan-3-yl-piperazin-1-yl)-pyridin-2-ylamino]-pyrimidin-4-yl}-2-(tetrahydro-pyran-4-yloxy)-benzonitrile]	< 0.1	< 0.1
COCCN1CCN(c2ccc(Nc3nccc(-c4ccc(OC5CCOCC5)c(C#N)c4)n3)nc2OC)CC1 [Example 166]	< 0.1	< 0.1
COc1nc(Nc2nccc(-c3ccc(OC4CCOCC4)c(C#N)c3)n2)ccc1N1CCN(CCO)CC1 [Example 167, 5-[2-([5-[4-(2-hydroxyethyl)piperazin-1-yl]-6-methoxypyridin-2-yl]amino)pyrimidin-4-yl]-2-(oxan-4-yloxy)benzonitrile]	< 0.1	< 0.1
COc1nc(Nc2nccc(-c3ccc(OC4CCOCC4)c(C#N)c3)n2)ccc1N1CCN(C(C)=O)CC1 [Example 168, 5-(2-[[5-(4-acetylpiperazin-1-yl)-6-methoxypyridin-2-yl]amino]pyrimidin-4-yl)-2-(oxan-4-yloxy)benzonitrile]	< 0.1	< 0.1
COc1nc(Nc2nccc(-c3ccc(OC4CCOCC4)c(C#N)c3)n2)ccc1N1CCN(C2COC2)CC1 [Example 169, 5-{2-[6-Methoxy-5-(4-oxetan-3-yl-piperazin-1-yl)-pyridin-2-ylamino]-pyrimidin-4-yl}-2-(tetrahydro-pyran-4-yloxy)-benzonitrile]	< 0.1	< 0.1
COc1nc(Nc2nccc(-c3ccc(OC4CCOCC4F)c(C#N)c3)n2)ccc1N1CCN(C2COC2)CC1 (stereo not drawn) [Example 170, 2-(3-Fluoro-tetrahydro-pyran-4-yloxy)-5-{2-[6-methoxy-5-(4-oxetan-3-yl-piperazin-1-yl)-pyridin-2-ylamino]-pyrimidin-4-yl}-benzonitrile]	< 0.1	< 0.1
N#Cc1cc(-c2ccnc(Nc3ccc(N4CCN(C5COC5)CC4)cc3)n2)ccc1OC1CNC1 [Example 171, 2-(azetidin-3-yloxy)-5-[2-([4-[4-(oxetan-3-yl)piperazin-1-yl]phenyl]amino)pyrimidin-4-yl]benzonitrile]	< 0.1	< 0.1
C[C@H](O)C(=O)N1CC(Oc2ccc(-c3ccnc(Nc4ccc(N5CCN(C6COC6)CC5)cc4)n3)cc2C#N)C1 [Example 172, 2-([1-[(2S)-2-hydroxypropanoyl]azetidin-3-yl]oxy)-5-[2-([4-[4-(oxetan-3-yl)piperazin-1-yl]phenyl]amino)pyrimidin-4-yl]benzonitrile]	0.1 to 1	0.1 to 1
C[C@@H](O)C(=O)N1CC(Oc2ccc(-c3ccnc(Nc4ccc(N5CCN(C6COC6)CC5)cc4)n3)cc2C#N)C1 [Example 173, 2-([1-[(2R)-2-hydroxypropanoyl]azetidin-3-yl]oxy)-5-[2-([4-[4-(oxetan-3-yl)piperazin-1-yl]phenyl]amino)pyrimidin-4-yl]benzonitrile]	0.1 to 1	0.1 to 1
COc1nc(Nc2nccc(-c3ccc(OC4CNC4)c(C#N)c3)n2)ccc1N1CCN(C2COC2)CC1 [Example 174, 2-(azetidin-3-yloxy)-5-[2-([6-methoxy-5-[4-(oxetan-3-yl)piperazin-1-yl]pyridin-2-yl]amino)pyrimidin-4-yl]benzonitrile]	< 0.1	< 0.1

Source: patent publication US20230019491A1, “PYRIMIDINE TBK/IKKe INHIBITOR COMPOUNDS AND USES THEREOF” (Merck Patent GmbH, priority 2017, published 2023)
